The values below come from patent US7786129B2, “Piperazine derivatives of dialkyl oxindoles” (Egis Gyogyszergyar Nyrt, priority 2004, dated 2010).

Counter-ions that a name gives are not always drawn. Marks after values point to notes of the source that are not given here. A value given as a limit tells only on which side of the number the result lay.

The target of data set [1] is T1, 5-HT2C receptor (Sus scrofa, UniProt K7GSR7).
T1 construct: from tissue; host or cells: pig choroid plexus membrane preparation
T1 sequence (K7GSR7 1-457): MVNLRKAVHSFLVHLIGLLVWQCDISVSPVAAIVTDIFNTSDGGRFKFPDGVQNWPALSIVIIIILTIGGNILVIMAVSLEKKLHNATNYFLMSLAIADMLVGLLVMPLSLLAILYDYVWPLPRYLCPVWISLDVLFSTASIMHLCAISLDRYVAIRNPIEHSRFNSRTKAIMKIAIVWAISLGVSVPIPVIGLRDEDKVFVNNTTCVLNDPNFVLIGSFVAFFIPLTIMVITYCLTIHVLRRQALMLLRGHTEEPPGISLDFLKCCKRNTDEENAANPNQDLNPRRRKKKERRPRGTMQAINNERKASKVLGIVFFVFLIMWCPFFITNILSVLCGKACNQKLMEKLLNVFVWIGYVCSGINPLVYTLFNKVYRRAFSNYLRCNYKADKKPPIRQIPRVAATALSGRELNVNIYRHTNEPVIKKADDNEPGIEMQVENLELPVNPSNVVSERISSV
Nature of the data set: 5-HT2C receptor binding. Details: species or system pig. The note with it: choroid plexus of pigs, ligand 3H-mesulergin 1.0 nM. The procedure:
(§1) Receptor bindings—with the exception of the 5-HT2C receptor binding—were determined by using cerebral region preparations of male Wistar rats weighing 120-200 g. For the preparation of 5-HT1A receptor binding frontal cortex preparations were used. The al receptor binding studies were performed from isolated frontal cortex pre-parations. For the 5-HT2C receptor binding experiments choroid plexus of pigs was used. The protein contents of membrane preparations were determined by the method of Lowry (1951).
(§2) In the course of 5-HT2C and α1 receptor binding experiments the ligands were ^3H-mesulergin (1.0 nM) and ^3H-prazosine (0.3 nM), respectively. The non-specifically binding ligands were mianserine (1 μM and prazosine (1 μM), respectively.
(§3) The IC50 value is the value of concentration where the difference between total and non-specific binding is 50% in the presence of a determined concentration of a specific ligand.

Data set [2] deals with T2, 5-HT1A receptor (Rattus norvegicus, UniProt P19327).
T2 construct: from tissue; host or cells: rat frontal cortex membrane preparation
T2 sequence (P19327 1-422): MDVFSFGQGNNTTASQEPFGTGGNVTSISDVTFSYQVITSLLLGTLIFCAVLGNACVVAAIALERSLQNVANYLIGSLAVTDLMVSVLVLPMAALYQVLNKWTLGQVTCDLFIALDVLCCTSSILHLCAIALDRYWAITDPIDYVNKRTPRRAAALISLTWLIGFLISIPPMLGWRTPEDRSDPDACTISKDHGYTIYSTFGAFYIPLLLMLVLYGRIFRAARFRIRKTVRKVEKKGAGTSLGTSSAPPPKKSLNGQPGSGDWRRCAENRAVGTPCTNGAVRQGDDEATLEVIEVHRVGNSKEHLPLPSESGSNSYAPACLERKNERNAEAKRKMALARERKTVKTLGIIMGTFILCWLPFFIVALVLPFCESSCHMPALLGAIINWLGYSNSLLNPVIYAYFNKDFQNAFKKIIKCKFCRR
Nature of the data set: 5-HT1A receptor binding. The note with it: rat frontal cortex preparation, ligand tritiated 8-OH-DPAT. The procedure:
as §1
5-HT1A receptor binding was measured according to the method of Peroutka (Peroutka, S. J.: J. Neurochem. 47, p. 529 (1986)). The ligand was tritiated 8-hydroxy-N,N-dipropyl-2-aminotetraline (8-OH-DPAT). For the determination of non-specific binding 10 μM serotonin was applied. Incubation […] volume was 250 μl. Incubation was carried out at a temperature of 25 C for 30 minutes. The reaction was terminated by the addition of 9 ml of ice-cold 50 mM TRIS-HCl (pH 7.7) buffer and quick vacuum filtration using Whatman GFIB fibreglass filtering paper. Radioactivity of the filter boards was measured by liquid scintillation spectrometry.
as §3

Data set [3] deals with Male Wistar rats. Put plainly: Vogel's drinking conflict test. Format: in vivo. The note with it: ip, 0.5 h, rat, i.p. 30 min prior to test, increase in tolerated shocks, read-out: MED. As for the experimental part:
(§4) The anxiolytic effect of the compounds according to the invention was investigated on rats according to Vogel's drinking conflict test and elevated plus-maze test (S. Pelow, P. Chopin, S. E. File, J. Briley: Neurosci. Methods 14, p. 149 (1985)).
Male Wistar rats weighing 160-180 g were used for the experiment. The animals were deprived of drinking water for 48 hours and fasted for 24 hours prior to test. The test compounds or vehicle were administered intraperitoneally, 30 min prior to test. […] Following every 20 licks electric shocks (0.7 mA) were applied through the drinking spout during the 5 min test period. The number of punished licks were recorded. The effect of the test compounds was expressed as % increase in numbers of tolerated shocks. Minimal effective doses (MED) were determined for each compound.

Data set [4] has as its target α1 receptor. Nature of the data set: α1 receptor binding experiment. The note with it: rat isolated frontal cortex preparation, ligand 3H-prazosine 0.3 nM. The procedure:
as §1, §2, §3

In data set [5] the test system is Male Mongolian gerbils. Put plainly: Neuroprotective effect in global ischemia test (bilateral carotid occlusion). Format: in vivo, Mongolian gerbil. The note with it: gerbil; for Effect (%): change of CA1 cell loss score vs. control, 30 mg/kg i.p.; for CA1 cell loss (score): 30 mg/kg i.p. 45 min after surgery, scored 4 days after surgery on 6-point scale. The procedure:
Male Mongolian gerbils weighing 60-90 g were used as test animals. The test compounds were administered intraperitoneally at a dose of 30 mg/kg 45 min after surgery. Test substances were suspended in 0.4% methylcellulose solution. In diethylether narcosis, the right and left common carotid arteries were exposed through an anterior midline cervical incision and isolated from the vagus nerves and the surrounding tissues. Full arrest of carotid blood flow was achieved by tightening an aneurysm clip for 3 min. During surgery the body temperature of the animals was kept at the individual preoperative level (37.5±0.5° C.) with the help of a heating pad and a heating lamp.
4 days after the surgery the animals were anaesthetized with 60 mg/kg i.p nembutal (10 ml/kg) and perfused through the heart first with saline then with a fixative solution containing 0.1% glutaraldehyde, 4% paraformaldehyde and 0.2% picric acid in 0.1 M phosphate buffer (pH 7.4) for 30 min. The brain was removed from the skull and post fixed for at least 1 week at 4° C. in the same fixative solution.
Alternate coronal sections of 60 μm thickness were cut from different levels of the dorsal hippocampus by a microtome. The sections were repeatedly washed in 0.1 M phosphate buffer (pH 7.4) and stained by silver impregnation. The sections were stored twice in a preparatory solution (2% sodium hydroxide and 0.875% ammonium hydroxide solution) for 5 minutes, impregnated for 10 minutes in 0.875% ammonium hydroxide and 0.5% silver nitrate solution) and placed into a washing solution (0.5% sodium carbonate and 0.01% ammonium nitrate dissolved in a 29.1% aqueous ethanol solution) twice for 2 minutes and once for one minute. The slices were then developed in 9.9% ethanol solution containing 1.5% formaldehyde and 0.01% ammonium nitrate and fixed three times for 3 minutes in a 0.5% acetic acid solution. The stained slices were placed in 0.1M phosphate buffer (pH 7.4) and chrome gelatine, applied on plates, dehydrated and treated with xylol. The cover plates were fixed with DPX glue (Fluka).
The sections were examined under light microscopy and the overall neuronal damage in the hippocampal CA1 subfield in both hippocampi was scored on a 6-point scale: (O) undamaged, (1)—0-10%; (2)—10-30%; (3)—30-50%; (4)—50-70%; (5)—70-90%; (6)—90-100% cell loss. Group differences between drug-treated and vehicle-treated groups were statistically analysed by Mann-Whitney U-test.

Data set [6] deals with Male Sprague-Dawley rats. Put plainly: Elevated plus-maze test in rats. The following applies: minimal effective dose, rat, p.o., 60 min after treatment, time in or entries into open arms. Format: in vivo.
Description: as §4
A wooden cross elevated to 50 cm above the floor, 15 cm wide with 100 cm long arms was used for the experiments. The sides and ends of two opposite arms of the cross were equipped with 40 cm high walls, however, the arms were open to the 15×15 cm central area (closed arms). The two other opposite arms were not encircled by walls (open arms).
Male Sprague-Dawley rats weighing 200-220 g were used for the experiments. The animals were placed in the central area of the equipment 60 min after treatment and the following four parameters have been observed for the 5 min test time: • time spent in the open arms (sec), • time spent in the closed arms (see), • number of entries into the open arms, • number of entries into the closed arms.
The effect was expressed as percent increase in either the time spent in the open arms or number of entries into the open arms. MEDs (minimal effective doses) were determined for each compound.

What is called melting point is the temperature of the solid-liquid transition. By IC50 is commonly meant the concentration at which inhibition is half-maximal. A lower IC50 goes with inhibition by little substance.

Take `CCC1(CCCN2CCN(c3cccc(Cl)c3)CC2)C(=O)Nc2ccc(Cl)cc21` (centres unmarked) [Example 57, 5-Chloro-3-{3-[4-(3-chlorophenyl)-piperazin-1-yl]-propyl}-3-ethyl-1,3-dihydro-2H-indol-2-one]: the melting point was 117 to 119 °C. This molecule registered an IC50 in data set [1] below 50 nM.

For the molecule `CCC1(CCCCN2CCN(c3cccc(Cl)c3)CC2)C(=O)Nc2ccc(Br)cc21` (centres unmarked) [Example 61, 5-Bromo-3-{4-[4-(3-chlorophenyl)-piperazin-1-yl]-butyl}-3-ethyl-1,3-dihydro-2H-indol-2-one monooxalate], the figures for the 50% inhibitory concentration (IC50) in data set [1] and in data set [2] were below 100 nM and above 200 nM, respectively.

For the molecule `CCC1(CCCCN2CCN(c3ccccc3)CC2)C(=O)Nc2ccccc21` (centres unmarked) [Example 68, 3-[4-(4-Phenylpiperazin-1-yl)-butyl]-3-ethyl-1,3-dihydro-2H-indol-2-one monooxalate], the IC50 in data set [1] was below 100 nM; in data set [2], above 200 nM. In data set [3], the minimal effective dose turned out to be 10 mg/kg.

Take `CCC1(CCCCN2CCN(c3cccc(Cl)c3)CC2)C(=O)Nc2ccc(S(N)(=O)=O)cc21` (centres unmarked) [Example 72, 3-{4-[4-(3-Chlorophenyl)-piperazin-1-yl]-butyl}-3-ethyl-1,3-dihydro-2H-indol-2-one 5-sulfonamide monooxalate]: the IC50 was below 100 nM in data set [1] and above 200 nM in data set [2].

`CCC1(CCCCN2CCN(c3cccc(Cl)c3)CC2)C(=O)Nc2ccc(C)cc21` (centres unmarked) [Example 78, 3-{4-[4-(3-Chlorophenyl)-piperazin-1-yl]-butyl}-3-ethyl-5-methyl-1,3-dihydro-2H-indol-2-one] gave a melting point of 142 to 144 °C. This molecule had an IC50 in data set [4] below 100 nM. Also, the half-maximal inhibitory concentration (IC50) in data set [1] was below 100 nM. The molecule further returned a half-maximal inhibitory concentration (IC50) in data set [2] above 200 nM.

On to `CCC1(CCCCN2CCN(c3cccc(Cl)c3)CC2)C(=O)Nc2ccc(F)cc21` (centres unmarked) [Example 85, 3-{4-[4-(3-Chlorophenyl)-piperazin-1-yl]-butyl}-3-ethyl-5-fluoro-1,3-dihydro-2H-indol-2-one mono-hydrochloride], for which, in data set [5], the “Effect (%)” value was −46% and the “CA1 cell loss (score)” value is on record as 2.70* score. In data set [6], the MED is 0.1 mg/kg p.o. For the same molecule, the minimal effective dose in data set [3] came out at 5 mg/kg.

`CCC1(CCCCN2CCN(c3ccc(Cl)cc3)CC2)C(=O)Nc2c(Cl)cc(Cl)cc21` (centres unmarked) [Example 87, 5,7-Dichloro-3-{4-[4-(4-chlorophenyl)-piperazin-1-yl]-butyl}-3-ethyl-1,3-dihydro-2H-indol-2-one] came in with a melting point of 152 to 154 °C. For the same molecule, in data set [6], the MED turned out to be 0.3 mg/kg p.o. The minimal effective dose in data set [3] is 5 mg/kg. The IC50 in data set [2] was above 400 nM.

In turn, `CCC1(CCCCN2CCN(c3ccc(Cl)cc3)CC2)C(=O)Nc2ccc(F)cc21` (centres unmarked) [Example 90, 3-{4-[4-(4-Chlorophenyl)-piperazin-1-yl]-butyl}-3-ethyl-5-fluoro-1,3-dihydro-2H-indol-2-one] came in with a melting point of 148 to 150 °C. Besides, in data set [5], the “Effect (%)” value is given as −38% and the “CA1 cell loss (score)” value is listed as 2.73* score. The molecule further came in with a concentration for half-maximal inhibition (IC50) in data set [2] above 300 nM.

As for `CCC1(CCCCN2CCN(c3ccc(F)cc3)CC2)C(=O)Nc2ccccc21` (centres unmarked) [Example 95, 3-Ethyl-3-{4-[4-(4-fluorophenyl)-piperazin-1-yl]-butyl}-1,3-dihydro-2H-indol-2-one], the melting point was in the range of 118 to 119 °C. Also, the MED in data set [6] is 0.1 mg/kg p.o. Also, the minimal effective dose in data set [3] was determined as 10 mg/kg. Moreover, the concentration for half-maximal inhibition (IC50) in data set [2] was above 300 nM.
